Assay results published in ChEMBL document CHEMBL1255378, “Emergence of the plasmid-mediated quinolone resistance gene qnrS1 in Escherichia coli isolates in Greece” (2008).
Converted amounts (≈) assume the structure as drawn.

Tests used:
Escherichia coli [1] = assay: Antimicrobial activity against qnrS1-positive ampicillin-resistant Escherichia coli isolate 8 expressing gyrA S83L/D87N and parC S80I mutants by Etest
Escherichia coli [2] = assay: Antimicrobial activity against qnrS1-positive ampicillin and amoxicillin-resistant Escherichia coli isolate 6 expressing gyrA S83L/D87N and parC S80I mutants by Etest
Escherichia coli [3] = assay: Antimicrobial activity against qnrS1-positive ampicillin-resistant Escherichia coli isolate 7 expressing gyrA S83L/D87N and parC S80I mutants by Etest
Escherichia coli [4] = assay: Antimicrobial activity against Escherichia coli harboring plasmid carrying qnrS1 gene by Etest
Escherichia coli [5] = assay: Antimicrobial activity against qnrS1-positive multidrug-resistant Escherichia coli isolate 4 expressing gyrA S83L/D87N and parC S80I mutants by Etest
Escherichia coli [6] = assay: Antimicrobial activity against qnrS1-positive multidrug-resistant Escherichia coli isolate 3 expressing beta-lactamase CTX-M-15, gyrA S83L/D87N and parC S80I mutant by Etest
Escherichia coli [7] = assay: Antimicrobial activity against qnrS1-positive multidrug-resistant Escherichia coli isolate 10 expressing gyrA S83L/D87N and parC S80I mutants by Etest
Escherichia coli [8] = assay: Antimicrobial activity against qnrS1-positive multidrug-resistant Escherichia coli isolate 9 expressing gyrA S83L/D87N and parC S80I mutants by Etest

`O=C(O)c1cn(C2CC2)c2cc(N3CCNCC3)c(F)cc2c1=O` [CIPROFLOXACIN] was tested, and the MIC (Escherichia coli [1]) was 128 µg/mL (≈ 386 µM), the MIC (Escherichia coli [2]) was 64 µg/mL (≈ 193 µM) and the MIC (Escherichia coli [3]) was 128 µg/mL (≈ 386 µM). The MIC (Escherichia coli [4]) was 0.032 µg/mL (≈ 0.0966 µM), the MIC (Escherichia coli [5]) was 64 µg/mL (≈ 193 µM) and the MIC (Escherichia coli [6]) was 64 µg/mL (≈ 193 µM). The MIC (Escherichia coli [7]) was 128 µg/mL (≈ 386 µM) and the MIC (Escherichia coli [8]) was 128 µg/mL (≈ 386 µM).
